Data set [1] has as its system FADU cells. The data set is described as follows: CCK-8 cytotoxicity assay, determination of inhibitory concentrations in FADU cells. The format is cell-based, human. Conditions: 72 hr. The method, then:
(§1) Logarithmically growing cells were plated at a density of 3×10^3 cells/well and allowed to recover overnight. […] After 72 hours, cell toxicity was determined by CCK-8 (Cell Counting Kit-8) reagent (Dojindo Molecular Technologies, Japan); WST-8 (2-(2-methoxy-4-nitrophenyl)-3-(4-nitrophenyl)-5-(2, 4-disulfophenyl)]-2H-tetrazolium, monosodium salt) assay. In accordance with the manufacturer's instructions, 5 μl/well CCK-8 reagent was added and plates were incubated for 2 hours. The toxicity was determined by measuring the absorbance on Tecan Sapphire multi-fluorescence micro-plate reader (Tecan, Germany, GmbH) at a wavelength of 450 nm corrected to 650 nm and normalized to controls.
(§2) CCK-8 allows convenient assays using Dojindo's tetrazolium salt, WST [8[(2-(2-methoxy-4-nitrophenyl)-3-(4-nitrophenyl)-5-(2,4-disulfophenyl)-2H-tetrazolium, monosodium salt], which produces a water-soluble formazan dye upon bioreduction in the presence of an electron carrier, 1-Methoxy PMS. CCK-8 solution is added directly to the cells; no pre-mixing of components is required. CCK-8 is a sensitive nonradioactive colorimetric assay for determining the number of viable cells in cell proliferation and cytotoxicity assays. WST-8 is bio-reduced by cellular dehydrogenases to an orange formazan product that is soluble in tissue culture medium. The amount of formazan produced is directly proportional to the number of living cells. The detection sensitivity of cell proliferation assays using WST-8 is higher than assays using the other tetrazolium salts such as MIT, XTT, MTS or WST-1. Optical Density was determined at measurement wavelength of 450 nm and reference wave length of 630 nm.
(§3) The cells were seeded at a density of 3000 cells/well, in a 200 μL in tissue culture grade 96 well plate and were allowed to recover for 24 hrs in a humidified 5%±0.2 CO2 incubator at 37° C.±0.5° C. […] The final DMSO concentration was 0.5% in wells. Plates were incubated for 48 hrs in humidified 5%±0.2 CO2 incubator at 37±0.5° C. After 48 hrs the plates were removed from CO2 incubator and 5 μL of Cell counting Kit (CCK-8) per well was added. The same plate was kept at 37° C. for 3 hrs, and allowed to come to room temperature. The absorbance at a wavelength of 450 nm was read on Tecan safire reader. The percent cytotoxicity was calculated using the following formula.

The test system of data set [2] is Detroit-562 cells. The data set is described as follows: CCK-8 cytotoxicity assay, determination of inhibitory concentrations in Detroit-562 cells. The format is cell-based. Conditions: 72 hr. The procedure:
as §1, §2, §3

Data set [3] has as its system FaDu (hypopharyngeal squamous cell carcinoma) xenografts. The data set is described as follows: In vivo efficacy in human head and neck cancer FaDu xenografts. The conditions noted are these: FaDu xenografts in SCID mice; end of treatment, after 18 days; Compound A 35 mpk i.p. once daily 5 days a week; cisplatin 1 mpk i.p. once a week; cetuximab 2.5 mpk twice a week; 3 weeks.
Experimental: In-vivo studies were carried out according to the method described in Clinical cancer search, 2003, 9, 6052-6061; the disclosure of which is incorporated herein by reference for the teaching of the assay.
The in-vivo studies were carried out using Xenograft models in Severe combined immune deficiency (SCID) mice strain—CbySmn.CB17-Prkdcscid/J, by the method described below. The statistically significant number of mice per group (n=6) was chosen in order to be able to statistically evaluate the study data.
FaDu cells were grown in MEM (minimum essential media) medium containing non-essential amino acids and 10% fetal calf serum in 5% CO2 incubator at 37° C. Cells were pelleted by centrifugation at 1000 rpm for 10 minutes. Cells were resuspended in pre-chilled mixture of saline to get a count of 6×10^6 cells per mL; 0.2 ml of this cell suspension was kept on ice and injected by subcutaneous (s.c.) route in SCID mice. Mice were observed every alternate day for palpable tumor mass. Once the tumor size reached a size of 3-5 mm in diameter, animals were randomized into respective groups of treatment and untreated controls. The treatment groups comprised of 5 groups viz. […] The control group received no treatment.
Measurement of tumor was done every 2-3 days apart. Growth inhibition percentage (GI %) was calculated at the end of experiment.

For data set [4], the system named is FADU cells. Conditions: FADU.
Data set [5] concerns Detroit-562 cells. The data set is described as follows: Combination studies (single and sequential combination dosing), % cytotoxicity in Detroit-562 cells. Conditions: Detroit-562. The procedure: as §1, §2
Sorafenib in the following dose of final concentration 1.8 μM and compound A in the following doses of final concentration 0.5 μM, 1.3 μM and 12.1 μM were analyzed in single dose and in all possible combinations of the dose range for the two anticancer agents mentioned above. The sequence of treatment is as follows; Detroit-562 cells were treated with sorafenib for 0 to 24 hrs. At the end of 24 hrs the cells were washed two times with plain MEM medium. Fresh MEM with 10% serum (200 μL/well) was added, followed by treatment with compound A from 24 hrs to 96 hrs.
Sorafenib in the following dose of final concentration 1.8 μM and compound B in the following doses of final concentration 2.7 μM, 14.1 μM and 25.2 μM were analyzed in single dose and in all possible combinations of the dose range for the two anticancer agents mentioned above. The sequence of treatment is as follows; the Detroit-562 cells were treated with sorafenib for 0 to 24 hrs. At the end of 24 hrs the cells were washed two times with plain MEM medium. Fresh MEM with 10% serum (200 μL/well) was added, followed by treatment with compound B from 24 hrs to 96 hrs.
Lapatinib in the following dose of final concentration 1 μM and compound A in the following doses of final concentration 0.5 μM, 1.3 μM and 12.1 μM were analyzed in single dose and in all possible combinations of the dose range for the two anticancer agents mentioned above. The sequence of treatment is as follows; the Detroit-562 cells were treated with lapatinib for 0 to 24 hrs. At the end of 24 hrs the cells were washed two times with plain MEM medium. Fresh MEM with 10% serum (200 μL/well) was added, followed by treatment with compound A from 24 hrs to 96 hrs.
Lapatinib in the following dose of final concentration 1.0 μM and compound B in the following doses of final concentration 2.7 μM, 14.1 μM and 25.2 μM were analyzed in single dose and in all possible combinations of the dose range for the two drugs mentioned above. The sequence of treatment is as follows; the Detroit-562 cells were treated with lapatinib for 0 to 24 hrs. At the end of 24 hrs the cells were washed two times with plain MEM medium. Fresh MEM with 10% serum (200 μL/well) was added, followed by treatment with compound A from 24 hrs to 96 hrs.

The mark [6] stands for this setting: single agent at IC10, docetaxel study.
Where [7] appears, read: single agent at IC30, docetaxel study.
Where [8] appears, read: single agent at IC50, cisplatin/5-FU/compound A study.
Setting [9] is: single agent at IC70, cisplatin/5-FU/compound A study.

Read-outs that look alike come from different tables or passages of the source.

The results in this text go back to patent US10980776B2, “Synergistic pharmaceutical combination for the treatment of squamous cell carcinoma of head and neck” (Piramal Enterprises Limited, priority 2011, dated 2021).

In the data set with FADU cells [1], `N.N.[Cl][Pt][Cl]` [Cisplatin] came in with an IC10 of 0.25 µM, an IC30 of 3 µM, an IC50 of 8.3 µM and an IC70 of 30 µM. For the same molecule, the IC90 in the data set on FADU cells [1] was found to be 74 µM. Further, in the data set with Detroit-562 cells [2], the IC10 amounted to 0.3 µM, the IC30 stood at 3 µM, half-maximal inhibition (IC50) required 14.6 µM and the IC70 was found to be 43.2 µM. In the data set on Detroit-562 cells [2], this molecule returned an IC90 of 74.5 µM. The “Tumor Growth inhibition (%)” value in data set [3] was 4%.
In the case of `O=c1[nH]cc(F)c(=O)[nH]1` [Compound 5-FU], the IC10 with FADU cells [1] and in the data set with Detroit-562 cells [2] was 0.31 µM in each case. For the same molecule, the IC30 in the data set on FADU cells [1] is 2.3 µM; in the data set with Detroit-562 cells [2] it was 1.1 µM. Further, the IC70 in the data set on FADU cells [1] is 22.4 µM; with Detroit-562 cells [2] it was 17.6 µM. Further, the results for the IC50 in the data set on FADU cells [1] (Homo sapiens) and in the data set on Detroit-562 cells [2] (Homo sapiens) were 11.6 µM and 6.3 µM, respectively. The IC90 is 38.3 µM in the data set on FADU cells [1] (Homo sapiens) and 33.4 µM in the data set with Detroit-562 cells [2] (Homo sapiens). Moreover, the “% Cytotoxicity” value was 6.81% in the data set with FADU cells [4] (setting [6]); 17.81% in the data set with FADU cells [4] (single agent at IC30, cisplatin/5-FU/compound A study); 19.29% with FADU cells [4] (setting [7]); 21.1% in the data set on FADU cells [4] (setting [8]); 28.6% in the data set on FADU cells [4] (setting [9]); 9.49% with Detroit-562 cells [5] (setting [6]). Moreover, the “% Cytotoxicity” value is 15.39% in the data set with Detroit-562 cells [5] (setting [7]); 16.21% with Detroit-562 cells [5] (setting [8]); 19.54% in the data set with Detroit-562 cells [5] (setting [9]); 12.59% with Detroit-562 cells [5] (single agent at IC90, cisplatin/5-FU/compound A study).

A word on the IC10: it is the concentration at which the effect reaches the 10% level. High values mean weaker potency, low ones greater potency. What is called IC30 is the concentration needed for an effect of 30%. By IC50 is commonly meant the midpoint of a concentration-inhibition curve. Low values mean greater potency, high ones weaker potency. What is called IC70 is the point of the concentration-response curve where the effect stands at 70%. Read a high IC70 as a need for much substance. In general, IC90 refers to the point of the concentration-response curve where the effect stands at 90%. Higher therefore signals a need for much substance.
